From article PMC10439158, “The net electrostatic potential and hydration of ABCG2 affect substrate transport” (Nature Communications, 2023)
Numbering of substitutions follows the chain as printed. Blank lines part the entries; values can stand above or below the compound they belong to.

Key:
ABCG2 [1] = molecular target: T1, ABCG2 (Homo sapiens, UniProt Q9UNQ0); test: cell-based; design: full-length ABCG2-WT in MEF cells; species or system MEF (mouse embryonic fibroblasts) expressing human ABCG2-WT; Inhibition of ABCG2-mediated Hoechst 33342 transport; intracellular Hoechst 33342 fluorescence accumulation; conditions: ABCG2-WT, 0.5 uM Hoechst 33342; read-out: Hoechst 33342 transport inhibition IC50
T1 sequence (Q9UNQ0 1-655): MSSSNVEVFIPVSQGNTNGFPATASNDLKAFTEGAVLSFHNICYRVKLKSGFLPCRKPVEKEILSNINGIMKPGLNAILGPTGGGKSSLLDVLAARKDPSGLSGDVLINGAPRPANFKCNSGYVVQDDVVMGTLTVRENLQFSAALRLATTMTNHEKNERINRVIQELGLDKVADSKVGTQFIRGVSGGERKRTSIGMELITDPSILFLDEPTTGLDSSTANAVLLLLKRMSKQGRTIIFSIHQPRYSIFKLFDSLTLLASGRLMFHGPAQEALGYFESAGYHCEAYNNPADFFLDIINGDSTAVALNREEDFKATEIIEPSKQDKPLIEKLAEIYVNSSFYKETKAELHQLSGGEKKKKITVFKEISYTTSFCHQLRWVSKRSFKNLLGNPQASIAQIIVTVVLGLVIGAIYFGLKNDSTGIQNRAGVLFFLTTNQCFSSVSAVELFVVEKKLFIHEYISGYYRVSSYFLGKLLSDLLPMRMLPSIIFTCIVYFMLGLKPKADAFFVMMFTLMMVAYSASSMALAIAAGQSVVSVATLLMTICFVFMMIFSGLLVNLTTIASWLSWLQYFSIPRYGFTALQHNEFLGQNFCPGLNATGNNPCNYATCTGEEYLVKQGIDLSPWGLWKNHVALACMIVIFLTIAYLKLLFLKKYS
Protocol: The intracellular accumulation of fluorescent Hoechst 33342, pheophorbide a, chlorin e6, and purpurin 18, ABCG2 substrates, was used to determine the function of ABCG2. For Hoechst 33342 accumulation assay, MEFs were seeded into a 96-well black clear bottom plate (Corning #3603) at 20,000 cells/well and 0.5 μM Hoechst 33342, and either [compound left out] or the test inhibitor (0.002–10 μM) were added to the culture medium followed by incubation for 2 h at 37 °C in the dark. Thereafter, the medium was removed, and cells were washed twice with 200 μL ice-cold PBS and the fluorescence of Hoechst 33342 was then quantitatively determined with a Synergy H4 microplate reader (BioTek, Winooski, VT, USA) at an excitation wavelength of 355 nm and an emission wavelength of 460 nm. The accumulation of Hoechst 33342 was normalized to protein concentration as determined using the BCA Protein Assay Kit (Pierce, Rockford, IL, USA). […] The intracellular accumulation of pheophorbide a, purpurin 18, or chlorin e6 was measured at an excitation wavelength of 405 nm and an emission wavelength of 667 nm. […] The total radioactivity was measured by liqu Fig. 4 N436A substitution affects inhibitor interaction. a–d Representative snapshots from MDS of tariquidar interacting with ABCG2. a ABCG2-WT with residues within 4 Å of tariquidar are in surface representation. […]

ABCG2 [2] = molecular target: T1, ABCG2; test: cell-based; design: full-length ABCG2-WT in MEF cells; species or system Abcg2-KO MEFs expressing human ABCG2-WT; Inhibition of ABCG2-mediated Hoechst 33342 efflux; intracellular Hoechst 33342 fluorescence accumulation, normalized to vector control; conditions: 0.5 uM Hoechst 33342 substrate, 2 h, 37 °C; read-out: IC50 for transport inhibition in WT
Protocol: The intracellular accumulation of fluorescent Hoechst 33342, pheophorbide a, chlorin e6, and purpurin 18, ABCG2 substrates, was used to determine the function of ABCG2. […] Thereafter, the medium was removed, and cells were washed twice with 200 μL ice-cold PBS and the fluorescence of Hoechst 33342 was then quantitatively determined with a Synergy H4 microplate reader (BioTek, Winooski, VT, USA) at an excitation wavelength of 355 nm and an emission wavelength of 460 nm. The accumulation of Hoechst 33342 was normalized to protein concentration as determined using the BCA Protein Assay Kit (Pierce, Rockford, IL, USA). The data were normalized by the proportion accumulated relative (%) to vector control. For the time-dependent Hoechst 33342 accumulation assay, 10 μM Hoechst 33342 was treated for different time periods (0.5, 1, 1.5, 2, 5, 10, 20, 30, 60, and 90 min). Relative intracellular Hoechst 33342 levels in the MEFs were normalized to vector control at 90 min. For the other fluorescent substrate accumulation assay, 0.5 μM pheophorbide a, 5 μM chlorin e6, or 5 μM purpurin 18 were treated for 1 h at 37 °C in the dark. The intracellular accumulation of pheophorbide a, purpurin 18, or chlorin e6 was measured at an excitation wavelength of 405 nm and an emission wavelength of 667 nm. […] Thereafter, the medium was removed and cells were washed twice with 1 mL ice-cold PBS. […] The total radioactivity was measured by liqu Apparent EC50 and IC50 values were calculated from dose-response data using nonlinear regression analysis. All experiments were independently repeated at least three times. […] Non-polar residues are grey, polar residues are green, and acidic residues are red.

ABCG2 [3] = molecular target: T2, ABCG2 (Homo sapiens, UniProt Q9UNQ0); test: isothermal shift assay on membranes; inhibition of vanadate-sensitive ATPase in membranes; transport assay; format: biochemical
T2 construct: full-length ABCG2-WT in membrane vesicles

ABCG2 E211Q = molecular target: T3, ABCG2 E211Q (Homo sapiens, UniProt Q9UNQ0, E211Q); test: biochemical; design: species or system ABCG2 membrane vesicles; Hoechst 33342 concentration-dependent thermal stabilization of ABCG2, western blot read-out, without ATP; conditions: thermal stabilization, without ATP
T3 construct: full-length ABCG2-WT in membrane vesicles
T3 sequence (Q9UNQ0 1-655 E211Q): T1 sequence (Q9UNQ0 1-655) with E211Q
Description: (§1) The difference between ABCG-WT and ABCG2-N436A was not due to a difference in Hoechst 33342 initial uptake, given that the initial rate of uptake was linear and the slopes virtually identical for ABCG2-WT and ABCG2-N436A (Fig. 1d). The steady-state level of Hoechst 33342 was twofold lower in ABCG2-N436A cells (Fig. 1d). Steady-state drug levels represent an equilibrium between uptake and efflux rates, which can be used to estimate the rate of drug efflux. The twofold lower steady-state level of Hoechst 33342 in cells expressing ABCG2-N436A, therefore, indicates an estimated twofold increase in efflux (Fig. 1d). Direct monitoring of Hoechst 33342 efflux is not possible because of its avidity for binding to the minor groove of DNA, leaving little free Hoechst 33342 available for assessing efflux. This effect is also responsible for Hoechst 33342’s cytotoxicity, a property that we utilized as an additional approach to assess ABCG2 transport activity. […] The greater reduction in Hoechst 33342 cytotoxicity in ABCG2-N436A may be because Hoechst 33342 cytotoxicity occurs by a dual process of DNA binding and topoisomerase inhibition, both of which promote cytotoxic DNA damage. […] Consistent with the lower EC50 value of ATP (0.3 mM) for ABCG2-N436A, ABCG2-N436A was thermally stabilized by the non-hydrolyzable ATP analog AMP-PNP at lower concentrations than ABCG2-WT

ABCG2 K86M = molecular target: T4, ABCG2 K86M (Homo sapiens, UniProt Q9UNQ0, K86M); test: biochemical; design: species or system ABCG2 membrane vesicles; Hoechst 33342 concentration-dependent thermal stabilization of ABCG2, western blot read-out, without ATP; conditions: thermal stabilization, without ATP
T4 construct: full-length ABCG2-WT in membrane vesicles
T4 sequence (Q9UNQ0 1-655 K86M): T1 sequence (Q9UNQ0 1-655) with K86M
Description: as §1

ABCG2 [4] = molecular target: T1, ABCG2; test: biochemical; design: full-length ABCG2-WT in membrane vesicles; species or system ABCG2 membrane vesicles; Hoechst 33342 concentration-dependent thermal stabilization of ABCG2, western blot read-out, without ATP; conditions: thermal stabilization, without ATP

- IC50 (ABCG2 [1]): 6.04 µM
Structure (SMILES): CNC(=O)c1ccccc1Sc1ccc2c(/C=C/c3ccccn3)n[nH]c2c1 [Axitinib]

- IC50 (ABCG2 [2]): 2.4 µM
Structure (SMILES): COc1cc2nccc(Oc3ccc(NC(=O)C4(C(=O)Nc5ccc(F)cc5)CC4)cc3)c2cc1OC [Cabozantinib]

- IC50 (ABCG2 [2]): 0.77 µM
Structure (SMILES): C#Cc1cccc(Nc2ncnc3cc(OCCOC)c(OCCOC)cc23)c1 [Erlotinib]

Structure (SMILES): CCOc1ccc(-c2nc3cc(-c4nc5cc(N6CCN(C)CC6)ccc5[nH]4)ccc3[nH]2)cc1 [Hoechst 33342]
- IC50 (ABCG2 [3]): 35 µM
- EC50 (ABCG2 E211Q): 16 ± 3 µM
- EC50 (ABCG2 K86M): 31 ± 1 µM
- EC50 (ABCG2 [4]): 8.8 ± 1.9 µM

- IC50 (ABCG2 [2]): 4.34 µM
Structure (SMILES): CNC(=O)c1cc(Oc2ccc(NC(=O)Nc3ccc(Cl)c(C(F)(F)F)c3)cc2)ccn1 [Sorafenib]

- IC50 (ABCG2 [2]): 4.15 µM
Structure (SMILES): CCCS(=O)(=O)Nc1ccc(F)c(C(=O)c2c[nH]c3ncc(-c4ccc(Cl)cc4)cc23)c1F [Vemurafenib]
